Tests used:
Test in all cases: relative viability (nuclei count vs DMSO), 5 days (fraction); higher = more cells survive
[1] = tested on: 201T
How it was run: (§1)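 Relative viability divides the nuclei count in treated wells by that in vehicle wells. Lung cancer cell lines were seeded in 1536-well plates, dosed by pin tool the next day, and fixed and stained after 5 days in one step with final 0.05% Triton X-100, 1% formaldehyde and 1 ug/ml Hoechst. Dosing was a single drug or a fixed anchor-drug dose plus five library-drug doses (not always all listed) in √10 steps, and values are medians of duplicate plates imaged at 4×.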

[2] = tested on: A-427
How it was run: as §1

[3] = tested on: COR-L 105
How it was run: as §1

[4] = tested on: COR-L23
How it was run: as §1

[5] = tested on: EKVX
How it was run: as §1

[6] = tested on: HARA
How it was run: as §1

[7] = tested on: HCC-15
How it was run: as §1

[8] = tested on: HCC-44
How it was run: as §1

[9] = tested on: HCC-827
How it was run: as §1

[10] = tested on: LCLC-103H
How it was run: as §1

[11] = tested on: LK-2
How it was run: as §1

[12] = tested on: NCI-H1437
How it was run: as §1

[13] = tested on: NCI-H1666
How it was run: as §1

[14] = tested on: NCI-H1975
How it was run: as §1

[15] = tested on: NCI-H23
How it was run: as §1

[16] = tested on: NCI-H441
How it was run: as §1

[17] = tested on: NCI-H520
How it was run: as §1

[18] = tested on: NCI-H522
How it was run: as §1

[19] = tested on: NCI-H596
How it was run: as §1

[20] = tested on: NCI-H650
How it was run: as §1

[21] = tested on: NCI-H838
How it was run: as §1

[22] = tested on: SK-MES-1
How it was run: as §1

[23] = tested on: SW 900
How it was run: as §1

**Q.** How did the relative viability ([1]; first compound 0.01 µM) turn out when CC(C)Oc1cc(Nc2nc(N[C@@H](C)c3ccc(F)cn3)ncc2Cl)n[nH]1 [AZ23] + Cc1cc(Nc2cc(N3CCN(C)CC3)nc(Sc3ccc(NC(=O)C4CC4)cc3)n2)n[nH]1 [Tozasertib] (partner 0.1 µM) was run?
**A.** 1.03

**Q.** What about the relative viability ([1]; first compound 0.03162 µM) of the same compound?
**A.** 0.968

**Q.** And the relative viability ([1]; first compound 0.3162 µM)?
**A.** 0.985

**Q.** And the relative viability ([2]; first compound 0.01 µM)?
**A.** 0.174

**Q.** What about the relative viability ([2]; first compound 0.03162 µM) of the same compound?
**A.** 0.193

**Q.** What about the relative viability ([2]; first compound 0.3162 µM) of the same compound?
**A.** 0.177

**Q.** And the relative viability ([3]; first compound 0.01 µM)?
**A.** 0.375

**Q.** And the relative viability ([3]; first compound 0.03162 µM)?
**A.** 0.447

**Q.** What about the relative viability ([3]; first compound 0.3162 µM) of the same compound?
**A.** 0.365

**Q.** What about the relative viability ([4]; first compound 0.01 µM) of the same compound?
**A.** 0.135

**Q.** And the relative viability ([4]; first compound 0.03162 µM)?
**A.** 0.231

**Q.** And the relative viability ([4]; first compound 0.3162 µM)?
**A.** 0.205

**Q.** And the relative viability ([5]; first compound 0.01 µM)?
**A.** 0.471

**Q.** And the relative viability ([5]; first compound 0.03162 µM)?
**A.** 0.458

**Q.** And the relative viability ([5]; first compound 0.3162 µM)?
**A.** 0.407

**Q.** And the relative viability ([6]; first compound 0.03162 µM)?
**A.** 0.0837

**Q.** What about the relative viability ([6]; first compound 0.3162 µM) of the same compound?
**A.** 0.11

**Q.** What about the relative viability ([7]; first compound 0.01 µM) of the same compound?
**A.** 0.513

**Q.** And the relative viability ([7]; first compound 0.03162 µM)?
**A.** 0.498

**Q.** And the relative viability ([7]; first compound 0.3162 µM)?
**A.** 0.631

**Q.** And the relative viability ([8]; first compound 0.01 µM)?
**A.** 0.991

**Q.** What about the relative viability ([8]; first compound 0.03162 µM) of the same compound?
**A.** 0.841

**Q.** And the relative viability ([8]; first compound 0.3162 µM)?
**A.** 1.15

**Q.** And the relative viability ([9]; first compound 0.01 µM)?
**A.** 0.448

**Q.** What about the relative viability ([9]; first compound 0.03162 µM) of the same compound?
**A.** 0.445

**Q.** And the relative viability ([9]; first compound 0.3162 µM)?
**A.** 0.415

**Q.** And the relative viability ([10]; first compound 0.01 µM)?
**A.** 0.467

**Q.** What about the relative viability ([10]; first compound 0.03162 µM) of the same compound?
**A.** 0.491

**Q.** And the relative viability ([10]; first compound 0.3162 µM)?
**A.** 0.559

**Q.** And the relative viability ([11]; first compound 0.01 µM)?
**A.** 0.184

**Q.** And the relative viability ([11]; first compound 0.03162 µM)?
**A.** 0.222

**Q.** And the relative viability ([11]; first compound 0.3162 µM)?
**A.** 0.195

**Q.** And the relative viability ([12]; first compound 0.01 µM)?
**A.** 0.434

**Q.** And the relative viability ([12]; first compound 0.03162 µM)?
**A.** 0.449

**Q.** What about the relative viability ([12]; first compound 0.3162 µM) of the same compound?
**A.** 0.413

**Q.** And the relative viability ([13]; first compound 0.01 µM)?
**A.** 0.558

**Q.** And the relative viability ([13]; first compound 0.03162 µM)?
**A.** 0.583

**Q.** And the relative viability ([13]; first compound 0.3162 µM)?
**A.** 0.545

**Q.** And the relative viability ([14]; first compound 0.01 µM)?
**A.** 0.836

**Q.** What about the relative viability ([14]; first compound 0.03162 µM) of the same compound?
**A.** 0.977

**Q.** And the relative viability ([14]; first compound 0.3162 µM)?
**A.** 0.744

**Q.** And the relative viability ([15]; first compound 0.03162 µM)?
**A.** 0.558

**Q.** And the relative viability ([15]; first compound 0.3162 µM)?
**A.** 0.363

**Q.** What about the relative viability ([16]; first compound 0.01 µM) of the same compound?
**A.** 0.813

**Q.** What about the relative viability ([16]; first compound 0.03162 µM) of the same compound?
**A.** 0.782

**Q.** And the relative viability ([16]; first compound 0.3162 µM)?
**A.** 0.609

**Q.** What about the relative viability ([17]; first compound 0.01 µM) of the same compound?
**A.** 0.455

**Q.** And the relative viability ([17]; first compound 0.03162 µM)?
**A.** 0.485

**Q.** What about the relative viability ([17]; first compound 0.3162 µM) of the same compound?
**A.** 0.475

**Q.** And the relative viability ([18]; first compound 0.01 µM)?
**A.** 0.519

**Q.** What about the relative viability ([18]; first compound 0.03162 µM) of the same compound?
**A.** 0.567

**Q.** What about the relative viability ([18]; first compound 0.3162 µM) of the same compound?
**A.** 0.65

**Q.** And the relative viability ([19]; first compound 0.01 µM)?
**A.** 1

**Q.** And the relative viability ([19]; first compound 0.03162 µM)?
**A.** 0.826

**Q.** What about the relative viability ([19]; first compound 0.3162 µM) of the same compound?
**A.** 0.827

**Q.** What about the relative viability ([20]; first compound 0.01 µM) of the same compound?
**A.** 0.728

**Q.** What about the relative viability ([20]; first compound 0.03162 µM) of the same compound?
**A.** 0.75

**Q.** And the relative viability ([20]; first compound 0.3162 µM)?
**A.** 0.802

**Q.** And the relative viability ([21]; first compound 0.01 µM)?
**A.** 0.267

**Q.** And the relative viability ([21]; first compound 0.03162 µM)?
**A.** 0.301

**Q.** What about the relative viability ([21]; first compound 0.3162 µM) of the same compound?
**A.** 0.274

**Q.** What about the relative viability ([22]; first compound 0.03162 µM) of the same compound?
**A.** 1.1

**Q.** And the relative viability ([22]; first compound 0.3162 µM)?
**A.** 0.942

**Q.** And the relative viability ([23]; first compound 0.01 µM)?
**A.** 0.536

**Q.** What about the relative viability ([23]; first compound 0.03162 µM) of the same compound?
**A.** 0.654

**Q.** And the relative viability ([23]; first compound 0.3162 µM)?
**A.** 0.532

— the supplement of paper PMC10307832
